In assay [1] the target is T1, AjKissR1 (Apostichopus japonicus, UniProt A0A5B7LK60).
T1 sequence (A0A5B7LK60 1-378): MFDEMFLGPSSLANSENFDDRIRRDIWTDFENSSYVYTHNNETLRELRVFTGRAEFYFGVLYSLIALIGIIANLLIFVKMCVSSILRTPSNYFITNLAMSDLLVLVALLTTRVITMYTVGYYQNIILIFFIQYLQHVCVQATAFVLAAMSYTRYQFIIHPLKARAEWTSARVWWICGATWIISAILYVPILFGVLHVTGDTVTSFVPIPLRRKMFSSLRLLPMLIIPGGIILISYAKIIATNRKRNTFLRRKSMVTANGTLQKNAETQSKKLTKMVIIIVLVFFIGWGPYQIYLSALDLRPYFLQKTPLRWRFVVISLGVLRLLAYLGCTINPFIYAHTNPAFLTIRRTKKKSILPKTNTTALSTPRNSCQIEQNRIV
The assay is described as follows: cell-based. The assay is classed as cell-based. The following applies: for Effect of inhibitor pre-treatment on AjKiss1a/AjKiss1b-elicited Ca2+ mobilization (in words): 100 nM AjKiss1a or AjKiss1b, pre-treated 12 hr PTX 100 ng/mL, or 1 hr FR900359 1.0 μM, U73122 10 μM, BAPTA-AM 100.0 μM, EGTA 5.0 mM; for Potency in triggering intracellular Ca2+ mobilization via AjKissR1 (in words): HEK293, Fura-2/AM, vertebrate kisspeptins and FITC-AjKiss1a at 1.0 μM. The procedure:
(§1) The fluorescent Ca^2+ indicator Fura-2/AM was used to detect intracellular calcium flux ([Li et al., 2010]). Briefly, the HEK293 cells expressing the AjKissR1, AjKissR2 or vertebrate kisspeptin receptor were washed twice with PBS and suspended at 5 × 10^6 cells/mL in Hanks’ balanced salt solution. The cells were then loaded with 3.0 μM Fura-2/AM for 30 min and washed twice in Hanks’ solution. They were then stimulated with the indicated concentrations of different predicted A. japonicus kisspeptins or vertebrate kisspeptins. Finally, intracellular calcium flux was measured for 60 s, by determining the ratio of excitation wavelengths at 340 and 380 nm using a fluorescence spectrometer (Infinite 200 PRO, Tecan, Männedorf, Switzerland). All of the experiments for measuring Ca^2+ mobilization were repeated independently at least three times.
Background: Calcium assays in cells follow changes in intracellular calcium, usually with a dye or a luminescent sensor.

For assay [2], the target named is T2, AjKissR2 (Apostichopus japonicus, UniProt A0A5B7LIE4).
T2 sequence (A0A5B7LIE4 1-327): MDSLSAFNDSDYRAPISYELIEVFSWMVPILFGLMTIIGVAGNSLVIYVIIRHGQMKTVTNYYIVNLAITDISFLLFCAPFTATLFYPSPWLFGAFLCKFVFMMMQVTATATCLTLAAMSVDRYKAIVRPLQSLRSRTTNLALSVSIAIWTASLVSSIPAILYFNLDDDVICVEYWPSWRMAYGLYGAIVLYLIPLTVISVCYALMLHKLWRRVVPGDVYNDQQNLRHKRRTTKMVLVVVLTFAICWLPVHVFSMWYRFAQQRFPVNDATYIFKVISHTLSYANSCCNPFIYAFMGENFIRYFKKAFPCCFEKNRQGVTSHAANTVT
The assay is described as follows: cell-based. The assay is classed as cell-based. Conditions: for Effect of inhibitor pre-treatment on AjKiss1a/AjKiss1b-elicited Ca2+ mobilization (in words): 100 nM AjKiss1a or AjKiss1b, pre-treated 12 hr PTX 100 ng/mL, or 1 hr FR900359 1.0 μM, U73122 10 μM, BAPTA-AM 100.0 μM, EGTA 5.0 mM; for Potency in triggering intracellular Ca2+ mobilization via AjKissR2 (in words): HEK293, Fura-2/AM, vertebrate kisspeptins and FITC-AjKiss1a at 1.0 μM. The method, then: as §1

Assay [3] concerns the target T1, AjKissR1. The assay is described as follows: ERK1/2 phosphorylation (western blot) in HEK293 cells expressing FLAG-AjKissR1. In kind it is cell-based. The following applies: for Effect of inhibitor on AjKiss1b-10-activated ERK1/2 phosphorylation (in words): pre-treated 1 hr, U73122 10 μM, Gö6983 1.0 μM, AjKiss1b-10 1.0 μM. The procedure: (§2) To examine the phosphorylation of ERK, cells that expressed AjKissr1/2 or other GPR54s were incubated for the indicated times with different concentrations of kisspeptins. Subsequently, cells were lysed with lysis buffer (Beyotime) that contained protease inhibitor (Roche) at 4°C for 30 min on a rocker and then scraped. Proteins were then electrophoresed on a 10% SDS polyacrylamide gel and transferred to polyvinylidene difluoride (PVDF) membranes. Membranes were blocked with 5% skimmed milk, then probed with rabbit anti-phospho-ERK1/2(Thr^202/Tyr^204) antibody (1:2000; Cell Signaling Technology), followed by detection using HRP-conjugated goat anti-rabbit IgG (Beyotime). Blots were stripped and reprobed using anti-ERK1/2 antibody (1:2000; Cell Signaling Technology) as a control for protein loading.
(§3) Immunoreactive bands were detected with an enhanced chemiluminescent substrate (Beyotime), and the membrane was scanned using a Tanon 5200 Chemiluminescent Imaging System (Tanon Science and Technology, Shanghai, China).
On the technique in general: A western blot detects proteins with antibodies after separation by electrophoresis.

The target in assay [4] is T2, AjKissR2. The assay is described as follows: ERK1/2 phosphorylation (western blot) in HEK293 cells expressing FLAG-AjKissR2. The following applies: for Effect of inhibitor on AjKiss1b-10-activated ERK1/2 phosphorylation (in words): pre-treated 1 hr, U73122 10 μM, Gö6983 1.0 μM, AjKiss1b-10 1.0 μM. The assay is classed as cell-based. The procedure:
as §2, §3

Assay [5] concerns the target T2, AjKissR2. The assay is described as follows: Ligand competition binding assay (FITC-AjKiss1a, FACS), HEK293/AjKissR2. Conditions: 1.0 μM FITC-AjKiss1a, read-out: IC50 (competitive displacement of FITC-AjKiss1a). The procedure:
(§4) A fluorescence-activated cell sorter (FACS) was used to detect the binding ability of kisspeptins with AjKissR1 or AjKissR2. HEK293 cells expressing FLAG–AjKissR1 or FLAG–AjKissR2 were washed with PBS that contained 0.2% bovine serum albumin (FACS buffer). We designed and synthesized an N-terminal FITC-labeled AjKiss1a peptide (see 'Key resources table'). Different kisspeptins were diluted in the FACS buffer to different concentrations, then added to cells that were incubated on ice for 60–90 min. Cells were washed thrice with the FACS buffer and re-suspended in the FACS buffer with 1% paraformaldehyde for 15 min. The binding activity of the indicated kisspeptin peptides with AjKissR1 or AjKissR2 was determined by measuring the fluorescence of FITC and was presented as a percentage of total binding.

In assay [6] the target is T1, AjKissR1. The assay is described as follows: Ligand competition binding assay (FITC-AjKiss1a, FACS), HEK293/AjKissR1. Conditions: 1.0 μM FITC-AjKiss1a, read-out: IC50 (competitive displacement of FITC-AjKiss1a). The method, then:
as §4

Setting [7] is: different concentrations for 5 min, immunoblot quantification, Figure 6A.

Entries after “also recorded” stand apart in the source; their conditions may differ. *1 amine or outer side, *2 acyl side, *3 side chain or, on linkers, in order; H or OH if unused. Where a SMILES comes first, the peptide text is derived from it. Bridges are numbered along the chain shown (N, C = ends). Where no end group is shown, it is not given here. [ ]: non-standard residue; d: D form. The star is where a group is joined. Leu(3R-OH,Nα-propionyl) = CCC(=O)N[C@H](C(=O)*)[C@H](O)C(C)C; X1 = CC(C)[C@@H](O[*:3])[C@H](N[*:1])C(=O)[*:2]; NMeT = CN[C@H](C(=O)O)[C@@H](C)O; dPhLac = O=C(O)[C@H](O)Cc1ccccc1; NMeA = CN[C@@H](C)C(=O)O; NMeDha = C=C(NC)C(=O)O

Turning to `CC(=O)OCOC(=O)CN(CC(=O)OCOC(C)=O)c1ccccc1OCCOc1ccccc1N(CC(=O)OCOC(C)=O)CC(=O)OCOC(C)=O` [BAPTA-AM, 1,2-bis(o-aminophenoxy)ethane N,N,N',N'-tetraacetic acid acetoxymethyl ester, reference compound], the “Effect of inhibitor pre-treatment on AjKiss1a/AjKiss1b-elicited Ca2+ mobilization (in words)” value at AjKissR1 [1] and on AjKissR2 [2] was “significantly attenuated” throughout.
On to `COc1ccc2c(c1)CC[C@@H]1[C@@H]2CC[C@]2(C)[C@@H](NCCCCCCN3C(=O)C=CC3=O)CC[C@@H]12` [U73122, reference compound], for which the “Effect of inhibitor on AjKiss1b-10-activated ERK1/2 phosphorylation (in words)” value on AjKissR1 [3] and on AjKissR2 [4] was “significantly blocked” each time. Also, the “Effect of inhibitor pre-treatment on AjKiss1a/AjKiss1b-elicited Ca2+ mobilization (in words)” value at AjKissR1 [1] and on AjKissR2 [2] was “significantly attenuated” each time.
For SAVKNKNKSRARPPLLPF-NH2 [AjKiss1b], the IC50 at AjKissR2 [5] amounted to 1250 nM; on AjKissR1 [6], 353 nM. Also, the EC50 at AjKissR1 [1] is 8.06 nM; on AjKissR2 [2], 33.2 nM.
For the molecule “FNYNPFGLRF-NH2 [DrKiss2-10, synthetic zebrafish kisspeptin decapeptide, reference compound]”, at AjKissR1 [1], the “Potency in triggering intracellular Ca2+ mobilization via AjKissR1 (in words)” value is given as “much lower potency; also recorded: potent”. Further, the “Potency in triggering intracellular Ca2+ mobilization via AjKissR2 (in words)” value at AjKissR2 [2] was “higher potency than that of HsKiss1-10; also recorded: potent”.
In the case of `COc1ccc2c(c1)c(C1=C(c3c[nH]c4ccccc34)C(=O)NC1=O)cn2CCCN(C)C` [Gö6983], the “Effect of inhibitor on AjKiss1b-10-activated ERK1/2 phosphorylation (in words)” value on AjKissR1 [3] and on AjKissR2 [4] was “significantly blocked” each time.
For `C=C1C(=O)N[C@@H](C)C(=O)N(C)[C@@H](C)C(=O)N[C@@H]([C@H](OC(=O)[C@@H](NC(=O)CC)[C@H](O)C(C)C)C(C)C)C(=O)N(C)[C@@H]([C@@H](C)OC)C(=O)O[C@H](C(C)C)[C@H](NC(C)=O)C(=O)O[C@H](Cc2ccccc2)C(=O)N1C` [FR900359, reference compound] (Ac-[X1][dPhLac][NMeDha]A[NMeA][X1](Leu(3R-OH,Nα-propionyl))[NMeT](Me); ester 1-C), the “Effect of inhibitor pre-treatment on AjKiss1a/AjKiss1b-elicited Ca2+ mobilization (in words)” value on AjKissR1 [1] and at AjKissR2 [2] was “completely blocked” each time.
On to “YNVNSFGLRF-NH2 [XtKiss1b-10, synthetic frog kisspeptin decapeptide, reference compound]”, for which the “Potency in triggering intracellular Ca2+ mobilization via AjKissR1 (in words)” value at AjKissR1 [1] is recorded as “higher potency; also recorded: potent”. The “Potency in triggering intracellular Ca2+ mobilization via AjKissR2 (in words)” value at AjKissR2 [2] is “higher potency than that of HsKiss1-10; also recorded: potent”.
On to “FITC–AGSLDc < CLEASC > EDVERRGRQPNRNAHYRTLPF-NH2 (disulfide) [FITC–AjKiss1a]”, for which, at AjKissR1 [1], the “Potency in triggering intracellular Ca2+ mobilization via AjKissR1 (in words)” value was “comparable to that induced by the wild-type neuropeptide”. Further, the “Potency in triggering intracellular Ca2+ mobilization via AjKissR2 (in words)” value at AjKissR2 [2] is given as “comparable to that induced by the wild-type neuropeptide”.
Turning to `O=C(O)CN(CCOCCOCCN(CC(=O)O)CC(=O)O)CC(=O)O` [EGTA, reference compound], the “Effect of inhibitor pre-treatment on AjKiss1a/AjKiss1b-elicited Ca2+ mobilization (in words)” value at AjKissR1 [1] and at AjKissR2 [2] was “significantly attenuated” each time.
With “AHYRTLPF-NH2 [AjKiss1a-10, truncated peptide of AjKiss1a]”, at AjKissR1 [1], the “Potency in triggering intracellular Ca2+ mobilization via AjKissR1 (in words)” value is given as “failed to activate”. Moreover, on AjKissR2 [2], the “Potency in triggering intracellular Ca2+ mobilization via AjKissR2 (in words)” value is “failed to activate”.
Consider “YNLNSFGLRY-NH2 [DrKiss1-10, synthetic zebrafish kisspeptin decapeptide, reference compound]”, for which the “Potency in triggering intracellular Ca2+ mobilization via AjKissR1 (in words)” value on AjKissR1 [1] is listed as “much lower potency; also recorded: potent”. For the same molecule, at AjKissR2 [2], the “Potency in triggering intracellular Ca2+ mobilization via AjKissR2 (in words)” value is recorded as “higher potency than that of HsKiss1-10; also recorded: potent”.
Turning to SRARPPLLPF-NH2 [AjKiss1b-10], the EC50 at AjKissR1 [3] (setting [7]) is 31.6 nM; at AjKissR2 [4] (setting [7]), 98.7 nM; on AjKissR1 [1] it was 1.71 nM; at AjKissR2 [2], 27.3 nM.
Turning to “YNWNSFGLRF-NH2 [HsKiss1-10, synthetic human kisspeptin decapeptide, reference compound]”, the “Potency in triggering intracellular Ca2+ mobilization via AjKissR1 (in words)” value at AjKissR1 [1] is reported as “higher potency; also recorded: potent”. Moreover, the “Potency in triggering intracellular Ca2+ mobilization via AjKissR2 (in words)” value on AjKissR2 [2] was “potent”.
Consider “HsNPS: human neuropeptide S, as a negative control (SFRNGVGTGMKKTSFQRAKS) [reference compound]”, for which the “Potency in triggering intracellular Ca2+ mobilization via AjKissR1 (in words)” value in the assay with AjKissR1 [1] is “no potency”. In the assay with AjKissR2 [2], the “Potency in triggering intracellular Ca2+ mobilization via AjKissR2 (in words)” value was “no potency”.
For “GRQPNRNAHYRTLPF-NH2 [AjKiss1a-15, truncated peptide of AjKiss1a]”, on AjKissR1 [1], the “Potency in triggering intracellular Ca2+ mobilization via AjKissR1 (in words)” value is given as “failed to activate”. Further, on AjKissR2 [2], the “Potency in triggering intracellular Ca2+ mobilization via AjKissR2 (in words)” value is “failed to activate”.

In general, IC50 refers to the point on the concentration scale where inhibition reaches its midpoint. By EC50 is commonly meant the concentration giving half of the maximal effect. Read a low EC50 as an effect from little substance.

Values taken from article PMC7282810, “Existence and functions of a kisspeptin neuropeptide signaling system in a non-chordate deuterostome species” (eLife, 2020).
